Laboratory results as given in article PMC12277872, “Design, Synthesis, In Vitro, and In Silico Studies of 5‐(Diethylamino)‐2‐Formylphenyl Naphthalene‐2‐Sulfonate Based Thiosemicarbazones as Potent Anti‐Alzheimer Agents” (Archiv Der Pharmazie, 2025).

Tests used:
hMAO‐B = target: T1, hMAO‐B (Homo sapiens, UniProt P27338); assay: In vitro fluorometric MAO-B inhibition assay (tyramine substrate, horseradish peroxidase coupling); assay type: biochemical
T1 construct: purchased Sigma Aldrich M7441
T1 sequence (P27338 1-520): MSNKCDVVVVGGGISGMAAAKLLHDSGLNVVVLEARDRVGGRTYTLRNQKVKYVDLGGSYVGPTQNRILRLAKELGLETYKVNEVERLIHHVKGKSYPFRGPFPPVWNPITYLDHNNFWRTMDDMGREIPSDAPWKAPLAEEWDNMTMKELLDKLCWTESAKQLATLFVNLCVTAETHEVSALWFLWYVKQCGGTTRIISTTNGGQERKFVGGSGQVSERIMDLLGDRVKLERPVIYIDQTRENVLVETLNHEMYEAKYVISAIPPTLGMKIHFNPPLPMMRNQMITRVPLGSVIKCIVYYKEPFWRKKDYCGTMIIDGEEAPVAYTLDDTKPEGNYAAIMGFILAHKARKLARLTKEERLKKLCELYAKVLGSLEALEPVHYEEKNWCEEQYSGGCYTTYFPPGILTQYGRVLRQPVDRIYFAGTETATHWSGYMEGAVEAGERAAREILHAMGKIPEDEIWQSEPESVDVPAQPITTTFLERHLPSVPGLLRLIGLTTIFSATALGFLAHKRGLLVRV
Description: (§1) The in vitro fluorometric technique was used to assess each newly generated substance's inhibitory activity against hMAO‐A and hMAO‐B. In a horseradish peroxidase coupling reaction, the oxired reagent (10‐acetyl‐3,7‐dihydroxyphenoxazine) detects H2O2, a result of the oxidative deamination of tyramine, which is utilized as an MAO substrate. The test was carried out in two steps. First, each compound's concentrations of 10^–3 and 10^–4 M were investigated. […] These parameters of this study were made as in previous studies. We purchased these two enzymes from Sigma Aldrich (M7316‐Monoamine Oxidase A human and M7441‐ […]).

hMAO‐A = target: T2, hMAO‐A (Homo sapiens, UniProt P21397); assay: In vitro fluorometric MAO-A inhibition assay (tyramine substrate, horseradish peroxidase coupling); assay type: biochemical
T2 construct: purchased Sigma Aldrich M7316
T2 sequence (P21397 1-527): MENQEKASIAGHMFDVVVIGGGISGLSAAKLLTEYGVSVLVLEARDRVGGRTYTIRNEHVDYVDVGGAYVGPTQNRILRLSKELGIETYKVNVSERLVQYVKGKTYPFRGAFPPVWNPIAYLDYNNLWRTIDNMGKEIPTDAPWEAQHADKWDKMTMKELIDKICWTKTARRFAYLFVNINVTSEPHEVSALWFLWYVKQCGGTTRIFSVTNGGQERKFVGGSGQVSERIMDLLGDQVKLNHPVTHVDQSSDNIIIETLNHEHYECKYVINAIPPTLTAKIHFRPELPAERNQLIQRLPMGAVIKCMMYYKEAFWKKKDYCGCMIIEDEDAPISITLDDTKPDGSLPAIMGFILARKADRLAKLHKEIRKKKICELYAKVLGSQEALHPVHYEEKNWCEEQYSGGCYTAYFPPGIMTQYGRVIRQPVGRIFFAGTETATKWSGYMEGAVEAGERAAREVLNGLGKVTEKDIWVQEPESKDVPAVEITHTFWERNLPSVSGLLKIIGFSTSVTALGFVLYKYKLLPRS
Description: as §1

[1] = target: T3, AChE from Electrophorus electricus (electric eel) (Electrophorus electricus, UniProt O42275); assay: biochemical; conditions: for IC50: AChI substrate, DTNB, 412 nm, Tris/HCl pH 8.0; for Ki: read-out: K i (nM) AChE
T3 construct: purchased Sigma Aldrich C3389
T3 sequence (O42275 24-633): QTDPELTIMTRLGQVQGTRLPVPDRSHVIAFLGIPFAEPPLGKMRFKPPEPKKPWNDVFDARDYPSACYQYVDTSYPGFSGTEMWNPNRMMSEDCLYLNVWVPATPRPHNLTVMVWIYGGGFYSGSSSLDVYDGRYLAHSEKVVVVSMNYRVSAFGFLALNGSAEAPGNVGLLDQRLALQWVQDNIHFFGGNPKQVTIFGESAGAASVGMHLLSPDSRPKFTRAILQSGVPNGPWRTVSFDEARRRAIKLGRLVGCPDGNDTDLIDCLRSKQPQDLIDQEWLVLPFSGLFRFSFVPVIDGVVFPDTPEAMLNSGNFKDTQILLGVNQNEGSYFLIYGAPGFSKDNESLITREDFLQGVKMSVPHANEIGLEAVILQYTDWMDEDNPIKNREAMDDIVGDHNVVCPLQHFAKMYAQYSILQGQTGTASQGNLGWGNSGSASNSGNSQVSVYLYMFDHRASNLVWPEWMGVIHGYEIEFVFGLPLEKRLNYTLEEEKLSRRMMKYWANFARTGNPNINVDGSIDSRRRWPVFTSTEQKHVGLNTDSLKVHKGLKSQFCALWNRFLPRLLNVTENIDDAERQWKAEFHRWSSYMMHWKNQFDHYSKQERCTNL
Description: Both […] (AChI) and butyrylcholine iodide (BChI) were used as substrates for the enzymatic hydrolysis reactions, with 5,5′‐dithiobis(2‐nitrobenzoic acid) (DTNB) serving as a common reagent for detecting the activities of AChE and BChE. The assay was conducted: 1 mL of 1.0 M Tris/HCl buffer (pH 8.0) was mixed with 10 μL of the sample solution in deionized water. To this mixture, 50 μL of AChE or BChE enzyme solution was added, and the reaction was incubated at room temperature for 10 min. After incubation, 50 μL of DTNB (0.5 mM) was introduced, followed by the addition of 50 μL of either AChI or BChI (10 mM), initiating the enzymatic reaction. […] This color change is due to the reaction of DTNB with thiocholine released during the hydrolysis of AChI or BChI. For every inhibitor that was utilized, IC50 and K i values were determined. In this study, C7512‐ BChE from equine serum and C3389‐ AChE from Electrophorus electricus (electric eel) were purchased from Sigma Aldrich.

BChE from equine serum = target: T4, BChE from equine serum (Equus caballus, UniProt P81908); assay: biochemical; conditions: for IC50: BChI substrate, DTNB, 412 nm, Tris/HCl pH 8.0; for Ki: read-out: K i (nM) BChE
T4 construct: C7512‐ BChE from equine serum; purchased Sigma Aldrich C7512; host or cells: equine serum
T4 sequence (P81908 whole entry): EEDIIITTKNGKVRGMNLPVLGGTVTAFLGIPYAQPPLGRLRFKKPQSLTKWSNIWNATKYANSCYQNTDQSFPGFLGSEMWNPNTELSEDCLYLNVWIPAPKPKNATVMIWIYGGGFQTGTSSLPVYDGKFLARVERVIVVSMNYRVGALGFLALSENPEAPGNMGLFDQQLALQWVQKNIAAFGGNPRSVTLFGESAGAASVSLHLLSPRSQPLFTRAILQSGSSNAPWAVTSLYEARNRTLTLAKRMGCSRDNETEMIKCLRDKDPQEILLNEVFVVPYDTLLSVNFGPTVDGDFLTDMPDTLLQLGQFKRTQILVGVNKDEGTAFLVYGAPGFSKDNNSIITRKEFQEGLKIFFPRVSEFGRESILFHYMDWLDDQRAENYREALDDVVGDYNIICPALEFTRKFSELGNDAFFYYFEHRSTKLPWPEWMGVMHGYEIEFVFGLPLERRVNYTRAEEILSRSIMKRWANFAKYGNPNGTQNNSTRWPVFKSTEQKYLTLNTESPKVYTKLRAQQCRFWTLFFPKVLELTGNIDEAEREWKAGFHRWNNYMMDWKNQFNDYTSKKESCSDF
Description: Both […] (AChI) and butyrylcholine iodide (BChI) were used as substrates for the enzymatic hydrolysis reactions, with 5,5′‐dithiobis(2‐nitrobenzoic acid) (DTNB) serving as a common reagent for detecting the activities of AChE and BChE. The assay was conducted: 1 mL of 1.0 M Tris/HCl buffer (pH 8.0) was mixed with 10 μL of the sample solution in deionized water. To this mixture, 50 μL of AChE or BChE enzyme solution was added, and the reaction was incubated at room temperature for 10 min. After incubation, 50 μL of DTNB (0.5 mM) was introduced, followed by the addition of 50 μL of either AChI or BChI (10 mM), initiating the enzymatic reaction. The hydrolysis of the substrates was monitored spectrophotometrically by measuring the absorbance at 412 nm, corresponding to the formation of the yellow‐colored 5‐thio‐2‐nitrobenzoate anion. This color change is due to the reaction of DTNB with thiocholine released during the hydrolysis of AChI or BChI. For every inhibitor that was utilized, IC50 and K i values were determined. In this study, C7512‐ BChE from equine serum and C3389‐ AChE from Electrophorus electricus (electric eel) were purchased from Sigma Aldrich.

Compound	IC50 (hMAO‐B)	IC50 (hMAO‐A)	IC50 [1]	Ki [1]	IC50 (BChE from equine serum)	Ki (BChE from equine serum)
CCN(CC)c1ccc(/C=N/NC(=S)NC2CCCCC2)c(OS(=O)(=O)c2ccc3ccccc3c2)c1 [Compound 5p, (E)‐2‐{[2‐(Cyclohexylcarbamothioyl)hydrazono]methyl}‐5‐(diethylamino)phenyl naphthalene‐2‐sulfonate]	327 ± 9.13 nM	145 ± 3.57 nM	54.5 ± 4.57 nM	47.1 ± 6.35 nM	254 ± 8.08 nM	226 ± 12.6 nM
CCN(CC)c1ccc(/C=N/NC(=S)NCc2ccc(Cl)cc2)c(OS(=O)(=O)c2ccc3ccccc3c2)c1 [Compound 5q, (E)‐2‐({2‐[(4‐Chlorobenzyl)carbamothioyl]hydrazono}methyl)‐5‐(diethylamino)phenyl naphthalene‐2‐sulfonate]	308 ± 6.07 nM	119 ± 9.24 nM	19.3 ± 1.28 nM	17.6 ± 3.34 nM	202 ± 14.9 nM	183 ± 11.5 nM
CCN(CC)c1ccc(/C=N/NC(=S)Nc2ccccc2C)c(OS(=O)(=O)c2ccc3ccccc3c2)c1 [Compound 5r, (E)‐5‐(Diethylamino)‐2‐{[2‐(o‐tolylcarbamothioyl)hydrazono]methyl}phenyl naphthalene‐2‐sulfonate]	495 ± 8.36 nM	143 ± 6.78 nM	27.4 ± 2.42 nM	21.2 ± 1.05 nM	294 ± 7.14 nM	249 ± 15.3 nM
CCN(CC)c1ccc(/C=N/NC(=S)NCc2ccccc2)c(OS(=O)(=O)c2ccc3ccccc3c2)c1 [Compound 5s, (E)‐2‐{[2‐(Benzylcarbamothioyl)hydrazono]methyl}‐5‐(diethylamino)phenyl naphthalene‐2‐sulfonate]	369 ± 12 nM	131 ± 5.34 nM	71.4 ± 8.92 nM	63.9 ± 7.54 nM	220 ± 8.53 nM	195 ± 13.5 nM
CCN(CC)c1ccc(/C=N/NC(=S)NCCc2ccccc2)c(OS(=O)(=O)c2ccc3ccccc3c2)c1 [Compound 5t, (E)‐5‐(Diethylamino)‐2‐{[2‐(phenethylcarbamothioyl)hydrazono]methyl}phenyl naphthalene‐2‐sulfonate]	289 ± 9.11 nM	139 ± 6.02 nM	56.2 ± 4.58 nM	48.3 ± 7.32 nM	271 ± 6.9 nM	227 ± 16.1 nM
CCN(CC)c1ccc(/C=N/NC(=S)Nc2c(Cl)cccc2Cl)c(OS(=O)(=O)c2ccc3ccccc3c2)c1 [Compound 5u, (E)‐2‐({2‐[(2,6‐Dichlorophenyl)carbamothioyl]hydrazono}methyl)‐5‐(diethylamino)phenyl naphthalene‐2‐sulfonate]	209 ± 5.84 nM	96.2 ± 5.77 nM	12.9 ± 1.02 nM	9.82 ± 1.76 nM	148 ± 7.35 nM	112 ± 7.61 nM
